Measurements taken from patent publication US12440529B2, “Topical Croton lechleri compositions and their use in the treatment of a bacterial colonization or primary or secondary bacterial infection of an underlying skin disorder” (ALPHYN BIOLOGICS, INC., priority 2020, dated 2025).
Values after ≈ are worked out from the molar mass of the structure shown. Like-named read-outs stand apart in the source and are kept apart here. Each block holds one compound with its values, some of them ahead of it.

Columns and labels:
[1] = tested on: cells; settings: Chen, Planta Med. 60 (1994); compounds obtained through extraction; cited from earlier work
[2] = tested on: S. pyogenes (Erythromycin and Tetracycline resistant strains); experiment: MIC/MBC assay (2-fold microdilution, CAMHB with […] laked horse blood); assay type: cell-based; settings: Streptococcus pyogenes, read-out: MIC
Protocol: (§1) Tables 26 and 27 show an assay whose setup is same as what was used for screening S. aureus and P. aeruginosa (i.e. 2-fold microdilution). The 20 strains of S. pyogenes assayed were selected from the two rounds of antibiotic screening to identify Erythromycin and Tetracycline resistant strains. […] For this feasibility study, AB-101 Lot 1 and Lot 2 was used. P. aeruginosa ATCC 27853 was tested as a positive control for AB-101 activity.

[3] = tested on: Pseudomonas aeruginosa; experiment: In vitro MIC/MBC assay (2-fold microdilution), multi-drug resistant strain panel; assay type: cell-based
From the text: Of the 20, 5 are known to be Verona integron-encoded metallo-beta-lactamase (VIM)—producing Pseudomonas aeruginosa which are drug resistant strains of Pseudomonas aeruginosa, another 5 are know to be Klebsiella pneumoniae carbapenemase (KPC) producing Pseudomonas aeruginosa strains which are drug resistant strains of Pseudomonas aeruginosa, and 4 are known to be IMP-Type Metallo-β-Lactamase (IMP))—producing Pseudomonas aeruginosa which are drug resistant strains of Pseudomonas aeruginosa. The 6 remaining strains are known to be antibiotic resistant and are listed simply as MDR strains. […]

[4] = tested on: MRSA strains (Mupirocin-resistant and Mupirocin-susceptible); experiment: In vitro MIC/MBC assay (2-fold microdilution), S. aureus strain panel; assay type: cell-based, Staphylococcus aureus; settings: Staphylococcus aureus
Protocol: (§2) AB-101 was tested against an extensive variety of bacterial strains, including Mupirocin-resistant MRSA, Mupirocin-resistant MSSA, Mupirocin-susceptible MSSA, Mupirocin-susceptible MRSA, and other skin-related pathogens.
(§3) Measures included the minimum inhibitory concentration (MIC) which is the lowest concentration of AB-101 that prevents visible growth of the bacterium or pathogen, and minimum bactericidal concentration (MBC) which is the lowest concentration of an antibacterial agent required to kill a bacterium.
(§4) AB-101 Lots 01, 02 and a purified extract of taspine for MIC are compared. […] Taspine may have additional synergistic benefits to be included in the whole extract in the final product for the effective treatment of a bacterial colonization or primary or secondary bacterial infection of an underlying skin disorder.
as §4, with “taspine for MBC are compared.” for “taspine for MIC are compared.”, “treatment of bacterial colonization” for “treatment of a bacterial colonization”
as §1

[5] = tested on: MSSA strains (Mupirocin-resistant and Mupirocin-susceptible; QC ATCC 29213); experiment: as above; assay type: cell-based, Staphylococcus aureus
Protocol: as §2, §3, §4
as §4, with “taspine for MBC are compared.” for “taspine for MIC are compared.”, “treatment of bacterial colonization” for “treatment of a bacterial colonization”
as §1

[6] = Staphylococcus aureus, strain CDC 461, MupirocinS, MSSA
[7] = Staphylococcus aureus, strain CDC 461; MupirocinS, MSSA

Structure (SMILES): Oc1cc(O)c2c(c1)O[C@H](c1ccc(O)c(O)c1)[C@@H](O)C2 [Catechin, catechin]
effect on cell proliferation [1]: little effect

Structure (SMILES): CC[C@H]1OC(=O)[C@H](C)[C@@H](O[C@H]2C[C@@](C)(OC)[C@@H](O)[C@H](C)O2)[C@H](C)[C@@H](O[C@@H]2O[C@H](C)C[C@H](N(C)C)[C@H]2O)[C@](C)(O)C[C@@H](C)C(=O)[C@H](C)[C@@H](O)[C@]1(C)O [Erythromycin]
MIC ([2]; S. pyogenes strain 1744264): 2 µg/mL (≈ 2.73 µM)
MIC ([2]; S. pyogenes strain 1744265): > 16 µg/mL
MIC ([2]; S. pyogenes strain 1744271): > 16 µg/mL
MIC ([2]; S. pyogenes strain 1744272): > 16 µg/mL
MIC ([2]; S. pyogenes strain 1744275): > 16 µg/mL
MIC ([2]; S. pyogenes strain 1744277): 0.5 µg/mL (≈ 0.681 µM)
MIC ([2]; S. pyogenes strain 1744285): > 16 µg/mL
MIC ([2]; S. pyogenes strain 2065754): > 16 µg/mL
MIC ([2]; S. pyogenes strain 2065755): 2 µg/mL (≈ 2.73 µM)
MIC ([2]; S. pyogenes strain 2065756): 2 µg/mL (≈ 2.73 µM)
MIC ([2]; S. pyogenes strain 2065757): > 16 µg/mL
MIC ([2]; S. pyogenes strain 2065759): 4 µg/mL (≈ 5.45 µM)
MIC ([2]; S. pyogenes strain 2065760): 2 µg/mL (≈ 2.73 µM)
MIC ([2]; S. pyogenes strain 2065761): > 16 µg/mL
MIC ([2]; S. pyogenes strain 2065762): 2 µg/mL (≈ 2.73 µM)
MIC ([2]; S. pyogenes strain 2065763): 2 µg/mL (≈ 2.73 µM)
MIC ([2]; S. pyogenes strain 2065765): > 16 µg/mL
MIC ([2]; S. pyogenes strain 20658748): 2 µg/mL (≈ 2.73 µM)
MIC ([2]; S. pyogenes strain 20658749): 1 µg/mL (≈ 1.36 µM)
MIC ([2]; S. pyogenes strain 20658750): 1 µg/mL (≈ 1.36 µM)

Structure (SMILES): CN(C)[C@@H]1C(O)=C(C(N)=O)C(=O)[C@@]2(O)C(O)=C3C(=O)c4c(O)cccc4[C@@](C)(O)[C@H]3C[C@@H]12 [Tetracycline]
MIC ([2]; S. pyogenes strain 1744264): 0.25 µg/mL (≈ 0.563 µM)
MIC ([2]; S. pyogenes strain 1744265): 8 µg/mL (≈ 18 µM)
MIC ([2]; S. pyogenes strain 1744271): 16 µg/mL (≈ 36 µM)
MIC ([2]; S. pyogenes strain 1744272): 8 µg/mL (≈ 18 µM)
MIC ([2]; S. pyogenes strain 1744275): 0.25 µg/mL (≈ 0.563 µM)
MIC ([2]; S. pyogenes strain 1744277): 0.25 µg/mL (≈ 0.563 µM)
MIC ([2]; S. pyogenes strain 1744285): > 16 µg/mL
MIC ([2]; S. pyogenes strain 2065754): 16 µg/mL (≈ 36 µM)
MIC ([2]; S. pyogenes strain 2065755): > 16 µg/mL
MIC ([2]; S. pyogenes strain 2065756): > 16 µg/mL
MIC ([2]; S. pyogenes strain 2065757): 16 µg/mL (≈ 36 µM)
MIC ([2]; S. pyogenes strain 2065760): > 16 µg/mL
MIC ([2]; S. pyogenes strain 2065762): > 16 µg/mL
MIC ([2]; S. pyogenes strain 2065765): 2 to 4 µg/mL (≈ 4.5 to 9 µM)
MIC ([2]; S. pyogenes strain 20658748): 16 µg/mL (≈ 36 µM)
MIC ([2]; S. pyogenes strain 20658749): 16 µg/mL (≈ 36 µM)
MIC ([2]; S. pyogenes strain 20658750): > 16 µg/mL

Next, values leading:

MIC ([3]; ATCC27853, strain ATCC 27853, QC strain): 2 µg/mL (≈ 6.68 µM)
MIC ([3]; strain CDC 0064, MDR): > 64 µg/mL
MIC ([3]; strain CDC 0092, IMP): > 64 µg/mL
MIC ([3]; strain CDC 0103, IMP): > 64 µg/mL
MIC ([3]; strain CDC 0230, VIM): > 64 µg/mL
MIC ([3]; strain CDC 0231, KPC): > 64 µg/mL
MIC ([3]; strain CDC 0239, VIM): > 64 µg/mL
MIC ([3]; strain CDC 0241, IMP): > 64 µg/mL
MIC ([3]; strain CDC 0246, MDR): > 64 µg/mL
MIC ([3]; strain CDC 0250, MDR): > 64 µg/mL
MIC ([3]; strain CDC 0254, VIM): > 64 µg/mL
MIC ([3]; strain CDC 0255, VIM): > 64 µg/mL
MIC ([3]; strain CDC 0353, MDR): 16 µg/mL (≈ 53.4 µM)
MIC ([3]; strain CDC 0356, KPC): > 64 µg/mL
MIC ([3]; strain CDC 0357, MDR): 16 µg/mL (≈ 53.4 µM)
MIC ([3]; strain CDC 0439, IMP): > 64 µg/mL
MIC ([3]; strain CDC 0441, KPC): > 64 µg/mL
MIC ([3]; strain CDC 0508, MDR): 16 µg/mL (≈ 53.4 µM)
MIC ([3]; strain CDC 0509, VIM): > 64 µg/mL
MIC ([3]; strain CDC 0516, KPC): > 64 µg/mL
MIC ([3]; strain CDC 0518, KPC): > 64 µg/mL
Structure (SMILES): C[C@@H](O)[C@H]1C(=O)N2C(C(=O)O)=C(SCCN=CN)C[C@H]12 [Imipenem]

MIC ([4]; strain 1674607, MupirocinR): > 64 µg/mL
MIC ([4]; strain 1674611, MupirocinR): 64 µg/mL
MIC ([4]; strain CDC 218, MupirocinR): > 64 µg/mL
MIC ([4]; strain CDC 224, MupirocinR): > 64 µg/mL
MIC ([4]; strain CDC 227, MupirocinS): 64 µg/mL
MIC ([4]; strain CDC 228, MupirocinR): 64 µg/mL
MIC ([4]; strain CDC 480, MupirocinS): 32 to 64 µg/mL
MIC ([4]; strain CDC 481, MupirocinS): 16 to 32 µg/mL
MIC ([4]; strain CDC 482, MupirocinS): 8 to 32 µg/mL
MIC ([4]; strain CDC 483, MupirocinS): 64 µg/mL
MIC ([5]; Staphylococcus aureus, strain 1674606, MupirocinR, MSSA): 2 to 8 µg/mL
MIC ([5]; Staphylococcus aureus, strain 1674606; MupirocinR, MSSA): 2 to 8 µg/mL
MIC ([5]; Staphylococcus aureus, strain 1674608, MupirocinR, MSSA): 2 to 4 µg/mL
MIC ([5]; Staphylococcus aureus, strain 1674608; MupirocinR, MSSA): 2 to 4 µg/mL
MIC ([5]; Staphylococcus aureus, strain ATCC 29213, QC control): 1 to 2 µg/mL
MIC ([5]; Staphylococcus aureus, strain ATCC 29213; QC control): 1 to 2 µg/mL
MIC [5, 6]: 4 to 8 µg/mL
MIC [5, 7]: 4 to 8 µg/mL
MIC ([5]; Staphylococcus aureus, strain CDC 462, MupirocinS, MSSA): 8 µg/mL
MIC ([5]; Staphylococcus aureus, strain CDC 462; MupirocinS, MSSA): 8 µg/mL
MIC ([5]; Staphylococcus aureus, strain CDC 463, MupirocinS, MSSA): 8 to 16 µg/mL
MIC ([5]; Staphylococcus aureus, strain CDC 463; MupirocinS, MSSA): 8 to 16 µg/mL
MIC ([5]; Staphylococcus aureus, strain CDC 464, MupirocinS, MSSA): 2 µg/mL
MIC ([5]; Staphylococcus aureus, strain CDC 464; MupirocinS, MSSA): 2 µg/mL
MIC ([5]; Staphylococcus aureus, strain CDC 484, MupirocinS, MSSA): 2 µg/mL
MIC ([5]; Staphylococcus aureus, strain CDC 484; MupirocinS, MSSA): 2 µg/mL
MIC ([5]; Staphylococcus aureus, strain CDC 485, MupirocinS, MSSA): 2 to 4 µg/mL
MIC ([5]; Staphylococcus aureus, strain CDC 485; MupirocinS, MSSA): 2 to 4 µg/mL
Structure (SMILES): COc1cccc(OC)c1C(=O)N[C@@H]1C(=O)N2[C@@H]1SC(C)(C)[C@@H]2C(=O)O [Methicillin]

MIC [5, 6]: 0.25 to 1 µg/mL
MIC [5, 7]: 0.25 to 1 µg/mL
MIC ([2]; S. pyogenes strain 1744264): 0.25 µg/mL (≈ 0.499 µM)
MIC ([2]; S. pyogenes strain 1744265): 0.5 µg/mL (≈ 0.999 µM)
MIC ([2]; S. pyogenes strain 1744271): 0.5 µg/mL (≈ 0.999 µM)
MIC ([2]; S. pyogenes strain 1744272): 0.25 µg/mL (≈ 0.499 µM)
MIC ([2]; S. pyogenes strain 1744275): ≤ 0.125 µg/mL
MIC ([2]; S. pyogenes strain 1744277): ≤ 0.125 µg/mL
MIC ([2]; S. pyogenes strain 1744285): ≤ 0.125 µg/mL
MIC ([2]; S. pyogenes strain 2065754): ≤ 0.125 µg/mL
MIC ([2]; S. pyogenes strain 2065755): ≤ 0.125 µg/mL
MIC ([2]; S. pyogenes strain 2065756): ≤ 0.125 µg/mL
MIC ([2]; S. pyogenes strain 2065757): ≤ 0.125 µg/mL
MIC ([2]; S. pyogenes strain 2065759): ≤ 0.125 µg/mL
MIC ([2]; S. pyogenes strain 2065760): ≤ 0.125 µg/mL
MIC ([2]; S. pyogenes strain 2065761): ≤ 0.125 µg/mL
MIC ([2]; S. pyogenes strain 2065762): ≤ 0.125 µg/mL
MIC ([2]; S. pyogenes strain 2065763): ≤ 0.125 µg/mL
MIC ([2]; S. pyogenes strain 2065765): ≤ 0.125 µg/mL
MIC ([2]; S. pyogenes strain 20658748): ≤ 0.125 µg/mL
MIC ([2]; S. pyogenes strain 20658749): ≤ 0.125 µg/mL
MIC ([2]; S. pyogenes strain 20658750): ≤ 0.125 µg/mL
Structure (SMILES): C/C(=C\C(=O)OCCCCCCCCC(=O)O)C[C@@H]1OC[C@H](C[C@@H]2O[C@H]2[C@@H](C)[C@H](C)O)[C@@H](O)[C@H]1O [Mupirocin]
